In US6723710B2, “Compositions for inhibiting arginase activity” (The Trustees of the University of Pennsylvania, priority 1997, dated 2004):

B1: Recombinant rat liver arginase (Rattus norvegicus) (protein)
chain: MSSKPKPIEIIGAPFSKGQPRGGVEKGPAALRKAGLVEKLKETEYNVRDHGDLAFVDVPNDSPFQIVKNPRSVGKANEQLAAVVAETQKNGTISVVLGGDHSMAIGSISGHARVHPDLCVIWVDAHTDINTPLTTSSGNLHGQPVAFLLKELKGKFPDVPGFSWVTPCISAKDIVYIGLRDVDPGEHYIIKTLGIKYFSMTEVDKLGIGKVMEETFSYLLGRKKRPIHLSFDVDGLDPVFTPATGTPVVGGLSYREGLYITEEIYKTGLLSGLDIMEVNPTLGKTPEEVTRTVNTAVALTLSCFGTKREGNHKPETDYLKPPK
notes: made in house

Key:
[1] = system: arginase activities of the various tissues; test: arginase activity in tissue homogenates (liver, IAS, rectum, brain) with NO synthase inhibitor; format: biochemical, opossum; details: 80 micromolar; basal and in the presence of L-HO-Arg
Experimental: Tissue samples of the opossum internal anal sphincter muscle (IAS), adjoining rectal tissue, liver, and brain were homogenized using an ULTRATURRAX™ tissue homogenizer (Tekamr, Cincinnati, Ohio) in a solution comprising 10 millimolar Tris-HCl, 150 millimolar KCl, and 25 millimolar MnCl2, at pH 7.4. The homogenates were dialyzed overnight against the same solution. […]
Arginase activity in tissue homogenates was evaluated using the radioactive L-[guanidino^14C]arginine assay of Rüegg and Russell (1980, Anal. Biochem. 102:206-212). […] Urea was separated from non-reacted L-[guanidino-^14C]arginine by treatment with 200 μl of 1:1 v/v slurry of DOWEX™ 50W-X8 in water, and quantitated by adding 200 microliters of the supernatant from the DOWEX™ treatment to 3 milliliters of LIQUISCENT™ (National Diagnostics) for liquid scintillation counting in a Beckman LS 5000CE counter. The data were analyzed using double-reciprocal plots of the initial velocity measurements; standard errors were determined by regression analysis.
Thus, it is possible that tissue variations in inhibition of arginase activities by L-HO-Arg could be due to depletion of added L-HO-Arg by conversion to NO. In order to test this possibility, the effects of L-HO-Arg on arginase activities in the tissue homogenates were determined in the presence of the NO synthase inhibitor L-NNA.

[2] = system: internal anal sphincter (IAS) smooth muscle; test: NANC nerve-mediated relaxation of IAS smooth muscle strips by electrical field stimulation; set-up: species or system opossum (Didelphis virginiana); details: L-NNA 3×10^−6 molar
[3] = substrate: N=C(N)Nc1cccc([N+](=O)[O-])c1; test: continuous chromogenic arginase assay with substrate 1-nitro-3-guanidinobenzene (compound 18); format: biochemical, rat; details: other: as substrate, bicine pH 9.0
Experimental: The activity of wild-type arginase was monitored spectrophotometrically using a Pharmacia BIOTECH ULTROSPEC™ 2000. Assays were performed in a solution comprising 100 micromolar MnCl2 and 50 millimolar bicine-NaOH (pH 9.0). […] Eadie-Hofstee plots were used to analyze the data.

Row | effect of L-NNA on arginase activities [1] | Molecule | IAS relaxation in the presence of L-NNA ([2]; 0.5 Hertz EFS) | IAS relaxation in the presence of L-NNA ([2]; 1 Hertz EFS) | IAS relaxation in the presence of L-NNA ([2]; 2 Hertz EFS) | IAS relaxation in the presence of L-NNA ([2]; 5 Hertz EFS) | Km [3]
1 | no significant effect | N=C(NCCC[C@H](N)C(=O)O)N[N+](=O)[O-] [L-NNA, N^ω-nitro-L-arginine] | 0±0% | 0.6±0.6% | 1.8±1.1% | 5.4±2.1% | –
2 | – | B1 | – | – | – | – | 1.6±0.2 millimolar
